According to the OPERA property sets (Mansouri et al. 2018):

logP	SMILES
-0.45	CNC(=O)NS(=O)(=O)c1cccnc1
-0.65	NC(=O)NS(=O)(=O)c1cccnc1
0.54	CN(C)C(=O)NS(=O)(=O)Cc1ccccc1
1.95	CC(C)(C)NC(=O)NS(=O)(=O)c1ccccc1
0.99	CCN(CC)C(=O)NS(=O)(=O)c1ccccc1

Second part, the molecule before the results:

SMILES	logP
CNC(=O)NS(=O)(=O)c1ccccc1	0.44
CCNC(=O)NS(=O)(=O)c1ccccc1	0.9
CN(C)C(=O)NS(=O)(=O)c1ccccc1	0.28
CNC(=O)N(C)S(=O)(=O)Cc1ccccc1	1.18
CNC(=O)NS(=O)(=O)Cc1ccccc1	0.54
CC(C)NC(=O)NS(=O)(=O)c1ccccc1	1.34
CNC(=O)N(C)S(=O)(=O)c1cccnc1	0.42
NC(=O)NS(=O)(=O)c1ccccc1	0.28
CCCNC(=O)NS(=O)(=O)c1ccccc1	1.44
